Assay [1] relates to MEF PARP-1 (-/-) KO cells. The experiment in a line: Cell viability assay in MEF PARP-1 KO-/- cells. The following applies: Mus musculus, NA = Not applicable, no cell death observed. The assay is classed as cell-based. Here is the method:
(§1) Genetically engineered PARP-1 and PARP-2 double knockout mouse embryonic fibroblast (MEF) were used for cell viability studies with wildtype control.
(§2) Cell viability assays were carried out using four cell lines including OVCAR8, MEF wt, MEF PARP-1 (−/−) KO, and MEF PARP-2 (−/−) KO as described in Makvandi cited above. Briefly, cells were seeded in black wall clear bottom 96-well plates at concentrations of 1,000 cells/well. […] Plates were read on an Enspire multimode plate reader (Perkin Elmer). Data was normalized to percent survival at each concentration evaluated by diving the luminescent signal in treated wells vs. the average of vehicle controls. Experiments were repeated three times and all compounds were assayed during each experiment.
(§3) This isogenic model was selected due to the highly conserved nature of the PARP catalytic domain, all-owing investigation in enzyme specificity.
Enzyme dependency of selected compounds in MEF PARP-1 KO−/− cells (FIG. 2B) was performed as described above in order to identify if these analogues act through other cellular targets.

Assay [2] relates to MEF PARP-2 (-/-) KO cells. The experiment in a line: Cell viability assay in MEF PARP-2 KO-/- cells. The assay is classed as cell-based, mouse. The following applies: Mus musculus, NA = Not applicable, no cell death observed. Here is the method:
as §1, §2, §3
The cell cytotoxicity profile of these selected compounds in MEF PARP-2 KO−/− cell lines was then analyzed as described above.

Assay [3] concerns the target PARP-1 (Homo sapiens, UniProt P09874). The experiment in a line: PARP-1 radioligand binding in live OVCAR8 cells ([125I]KX1 competition). The following applies: for IC50: radioligand binding in OVCAR8 cells. The protocol:
(§4) Cells were cultured using standard techniques at 37° C. with 5% CO2 and 15% 02. […] Genetically engineered PARP-1 and PARP-2 double knockout mouse embryonic fibroblast (MEF) were used for cell viability studies with wildtype control. All cells were cultured in RPMI 1640 with 10% FBS and 1% penicillin/streptomycin.
The affinity of each compound for the PARP-1 enzyme was evaluated using a radioligand binding method described in Makvandi, A radiotracer strategy to quantify PARP-1 expression in vivo provides a biomarker that can enable patient selection for PARP inhibitor therapy. Cancer Research 2016. Briefly, OVCAR8 ovarian cancer cells were seeded in 96-well Stripwell plates at a density of 40,000 cells/well 24 hrs prior to the study. On the day of study, compounds were diluted in RPMI to concentrations of 100 μM-0.064 nM. […] Reactions were allowed to equilibrate for 1 hr and were then washed with 200 μL of PBS. Wells were separated and counted on an automatic Wizard gamma counter (Perkin Elmer, Waltham Mass.). […] Experiments were repeated three times with adjusting dose concentrations to increase accuracy of IC50 values.
Compounds 10-17 were evaluated for PARP-1 inhibition using a radioligand binding assay protocol with BRCA1 methylated ovarian cancer cells (OVCAR8) as described above. See, Table 3. […] Compared to 1a, oxaazaspiro analogue 1b performed slightly better with scaffold 10b displaying a PARP-1 binding value of 24.9 nM.

The subject of assay [4] is MEF WT cells. In words: Cell viability assay in MEF WT cells. The following applies: NA = Not applicable, no cell death observed. It counts as cell-based, mouse. Here is the method:
as §1, §2, §3

Assay [5] has as its system OVCAR8 cells. In words: Cell viability / cytotoxicity assay in OVCAR8 cells (CellTiter Glo). It counts as cell-based. The following applies: Homo sapiens, OVCAR-8, Table 4. Here is the method:
as §4
Cell viability assays were carried out using four cell lines including OVCAR8, MEF wt, MEF PARP-1 (−/−) KO, and MEF PARP-2 (−/−) KO as described in Makvandi cited above. Briefly, cells were seeded in black wall clear bottom 96-well plates at concentrations of 1,000 cells/well. After 24 h, cells were then treated with concentrations from 100-0.016 μM. Cells were incubated with compounds for 4-7 days and then assayed for cell viability using the luminescent based assay, CellTiter Glo (Promega, Waltham Mass.). Plates were read on an Enspire multimode plate reader (Perkin Elmer). Data was normalized to percent survival at each concentration evaluated by diving the luminescent signal in treated wells vs. the average of vehicle controls. Experiments were repeated three times and all compounds were assayed during each experiment.
Cytotoxicity was then examined in OVCAR8 cells at 1, 10 and 100 μm concentrations as described above. See, FIGS. 1A-1C.
EC50 values of compounds 18-103 were obtained using OVCAR8 cells. See, Table 4.
(In general: Cellular ATP, detected with luciferase, serves as a proxy for viable cell number.)

As usually defined, the EC50 is the concentration that produces a half-maximal response. Usually IC50 stands for the concentration needed to halve the response being measured. A lower IC50 goes with greater potency.

Sequence of PARP-1 (P09874 whole entry): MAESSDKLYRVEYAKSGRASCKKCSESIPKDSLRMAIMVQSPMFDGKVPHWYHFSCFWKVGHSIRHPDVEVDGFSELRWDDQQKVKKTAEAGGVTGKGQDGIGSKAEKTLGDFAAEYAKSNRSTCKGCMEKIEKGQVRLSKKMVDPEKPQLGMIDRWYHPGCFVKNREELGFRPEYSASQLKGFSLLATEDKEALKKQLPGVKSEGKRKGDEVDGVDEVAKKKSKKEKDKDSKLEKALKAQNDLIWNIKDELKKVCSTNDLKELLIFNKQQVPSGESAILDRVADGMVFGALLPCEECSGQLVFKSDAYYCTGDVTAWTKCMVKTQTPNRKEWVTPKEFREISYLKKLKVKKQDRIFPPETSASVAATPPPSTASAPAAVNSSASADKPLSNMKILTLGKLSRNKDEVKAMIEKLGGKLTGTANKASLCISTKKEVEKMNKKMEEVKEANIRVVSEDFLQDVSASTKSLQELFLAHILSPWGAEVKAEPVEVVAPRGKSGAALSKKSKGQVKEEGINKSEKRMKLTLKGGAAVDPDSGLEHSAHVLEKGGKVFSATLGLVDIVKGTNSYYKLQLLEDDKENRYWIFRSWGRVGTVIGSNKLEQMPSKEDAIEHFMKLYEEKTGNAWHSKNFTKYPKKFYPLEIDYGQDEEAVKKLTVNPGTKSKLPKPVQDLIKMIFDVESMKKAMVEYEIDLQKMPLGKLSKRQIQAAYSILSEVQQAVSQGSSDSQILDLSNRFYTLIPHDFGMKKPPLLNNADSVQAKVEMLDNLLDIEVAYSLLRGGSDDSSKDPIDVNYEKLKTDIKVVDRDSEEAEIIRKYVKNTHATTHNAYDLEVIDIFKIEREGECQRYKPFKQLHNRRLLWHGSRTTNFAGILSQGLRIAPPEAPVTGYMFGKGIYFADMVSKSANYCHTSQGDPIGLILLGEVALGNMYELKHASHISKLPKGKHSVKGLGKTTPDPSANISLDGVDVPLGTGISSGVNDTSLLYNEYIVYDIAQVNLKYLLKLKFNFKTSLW

In the case of `CC(C)(C)OC(=O)N1CCC2(CC1)CCN(C(=O)c1cc(Cc3n[nH]c(=O)c4ccccc34)ccc1F)CC2` [Compound 17b, Tert-butyl 9-(2-fluoro-5-((4-oxo-3,4-dihydrophthalazin-1-yl)methyl)benzoyl)-3,9-diazaspiro[5.5]undecane-3-carboxylate], the EC50 in assay [1] is 43.4 µM; in assay [2], 19.2 µM; in assay [3], 0.453 µM; in assay [4] (Mus musculus) it was 16.9 µM. The IC50 in assay [3] was found to be 0.453 µM.

`COC1CN(C(=O)c2cc(Cc3n[nH]c(=O)c4ccccc34)ccc2F)C1` [Compound 23]: the EC50 in assay [5] came to 71.5 ± 1.2 µM; in assay [3] it was 0.00827 ± 0.0011 µM.

For `CO[C@H]1C[C@@H](NC(=O)c2cc(Cc3n[nH]c(=O)c4ccccc34)ccc2F)C1` [Compound 19], the EC50 was 17.1 ± 1.2 µM in assay [5] and 0.0208 ± 0.0011 µM in assay [3].

In the case of `O=C(c1cc(Cc2n[nH]c(=O)c3ccccc23)ccc1F)N1CCCC(OCCF)CC1` (stereo not drawn) [Compound 33, 4-(4-fluoro-3-(4-(2-fluoroethoxy)azepane-1-carbonyl)benzyl)phthalazin-1(2H)-one], the EC50 in assay [5] stood at 11.3 ± 1.3 µM; in assay [3], 0.00562 ± 0.0011 µM.

Take `O=C(c1cc(Cc2n[nH]c(=O)c3ccccc23)ccc1F)N1CCC2(CCCCC2)C1` [Compound 16a, 4-(4-Fluoro-3-(2-azaspiro[4.5]decane-2-carbonyl)benzyl)phthalazin-1(2H)-one]: the EC50 in assay [1] was 51.6 µM; in assay [2] it was 46.8 µM; in assay [3] it was 0.1414 ± 0.0013 µM; in assay [4] (Mus musculus) it was 42.7 µM.

Take `O=C(c1cc(Cc2n[nH]c(=O)c3ccccc23)ccc1F)N1CC2(C1)CN(c1ccc(F)cc1)C2` [Compound 40, 4-(4-fluoro-3-(6-(4-fluorophenyl)-2,6-diazaspiro[3.3]heptane-2-carbonyl)benzyl)phthalazin-1(2H)-one]: the half-maximal effective concentration (EC50) was 12 µM in assay [5] and 0.000376 µM in assay [3].

With `O=C(c1cc(Cc2n[nH]c(=O)c3ccccc23)ccc1F)N1CC2(CCCCC2)C1` [Compound 12a, 4-(4-Fluoro-3-(2-azaspiro[3.5]nonane-2-carbonyl)benzyl)phthalazin-1(2H)-one], the EC50 in assay [1] was determined as 48.3 µM; in assay [2], 39.9 µM; in assay [3], 0.0654 ± 0.0015 µM; in assay [4] (Mus musculus), 25.6 µM.

`O=C(c1cc(Cc2n[nH]c(=O)c3ccccc23)ccc1F)N1CCC2(CC1)CCN(C(=O)C1CC1)CC2` [Compound 17d, 4-(3-(9-(Cyclopropanecarbonyl)-3,9-diazaspiro[5.5]undecane-3-carbonyl)-4-fluorobenzyl)phthalazin-1(2H)-one]: the EC50 in assay [1] is 49.7 µM; in assay [2], 21.6 µM; in assay [3], 0.0443 µM; in assay [4] (Mus musculus), 24.8 µM. Also, the IC50 in assay [3] amounted to 0.0443 µM.

As to `COC1CCC(NC(=O)c2cc(Cc3n[nH]c(=O)c4ccccc34)ccc2F)CC1` (stereo not drawn) [Compound 22], the results for the EC50 in assay [5] and in assay [3] were 16.2 ± 1.2 µM and 0.2263 ± 0.0011 µM, respectively.

`O=C(c1cc(Cc2n[nH]c(=O)c3ccccc23)ccc1F)N1CCC(OCCF)CC1` [Compound 31, 4-(4-fluoro-3-(4-(2-fluoroethoxy)piperidine-1-carbonyl)benzyl)phthalazin-1(2H)-one]: the EC50 in assay [5] amounted to 17.1 ± 1.2 µM; in assay [3] it was 0.00395 ± 0.0012 µM.

As for `COC1CCN(C(=O)c2cc(Cc3n[nH]c(=O)c4ccccc34)ccc2F)C1` (stereo not drawn) [Compound 24], the EC50 turned out to be 37.3 ± 1.2 µM in assay [5] and 0.00421 ± 0.0011 µM in assay [3].

Regarding `CC(C)(C)OC(=O)N1CCC2(CC1)CCN2C(=O)c1cc(Cc2n[nH]c(=O)c3ccccc23)ccc1F` [Compound 13b, Tert-butyl 1-(2-fluoro-5-((4-oxo-3,4-dihydrophthalazin-1-yl)methyl)benzoyl)-1,7-diazaspiro[3.5]nonane-7-carboxylate], the EC50 is 33.2 µM in assay [2], 2.97 µM in assay [3], around 23 µM in assay [4] (Mus musculus) and 23.3 µM in assay [4].

`CO[C@H]1C[C@H](NC(=O)c2cc(Cc3n[nH]c(=O)c4ccccc34)ccc2F)C1` [Compound 20]: the EC50 in assay [5] was 72.2 µM.

With `O=C(c1cc(Cc2n[nH]c(=O)c3ccccc23)ccc1F)N1CC[C@H](OCCF)C1` [Compound 29, (S)-4-(4-fluoro-3-(3-(2-fluoroethoxy)pyrrolidine-1-carbonyl)benzyl)phthalazin-1(2H)-one], the EC50 is 56.6 µM in assay [5] and 0.00688 µM in assay [3].

For `CC(C)(C)OC(=O)N1CCC2(CCN(C(=O)c3cc(Cc4n[nH]c(=O)c5ccccc45)ccc3F)C2)C1` (stereo not drawn) [Compound 15b, Tert-butyl 7-(2-fluoro-5-((4-oxo-3,4-dihydrophthalazin-1-yl)methyl)benzoyl)-2,7-diazaspiro[4.4]nonane-2-carboxylate], the half-maximal effective concentration (EC50) in assay [1] is 46.4 µM; in assay [2], 23.4 µM; in assay [3], 4.4 µM; in assay [4] (Mus musculus), 17.2 µM. For the same compound, in assay [3] (10c vs 10a, 15b vs 15a), the “fold lower PARP-1 affinity compared to the methylene congener” value is recorded as around 85 fold. Also, in assay [3], the half-maximal inhibitory concentration (IC50) is 4.4 µM.

`COC1CCC(NC(=O)c2cc(Cc3n[nH]c(=O)c4ccccc34)ccc2F)C1` (stereo not drawn) [Compound 21]: the results for the EC50 in assay [5] and in assay [3] were 17 ± 1.2 µM and 0.0496 ± 0.0011 µM, respectively.

For `CC(C)(C)OC(=O)N1CCC2(CC1)CCN(C(=O)c1cc(Cc3n[nH]c(=O)c4ccccc34)ccc1F)C2` [Compound 16b, Tert-butyl 2-(2-fluoro-5-((4-oxo-3,4-dihydrophthalazin-1-yl)methyl)benzoyl)-2,8-diazaspiro[4.5]decane-8-carboxylate], the EC50 was 45.9 µM in assay [1], 31.6 µM in assay [2], 1.1 µM in assay [3] and 9.4 µM in assay [4] (Mus musculus).

As to `O=C(C1CC1)N1CCC2(CC1)CCN2C(=O)c1cc(Cc2n[nH]c(=O)c3ccccc23)ccc1F` [Compound 13d, 4-(3-(7-(Cyclopropanecarbonyl)-1,7-diazaspiro[3.5]nonane-1-carbonyl)-4-fluorobenzyl)phthalazin-1(2H)-one], the results for the 50% effective concentration (EC50) in assay [2], in assay [3] and in assay [4] (Mus musculus) were 44.4 µM, 0.431 µM and 47.5 µM, respectively.

Turning to `O=C(c1ccc(F)cc1)N1CC2(C1)CN(C(=O)c1cc(Cc3n[nH]c(=O)c4ccccc34)ccc1F)C2` [46 (X = F)], the EC50 in assay [5] was 36 µM; in assay [3], 0.0218 µM.

On to `O=C(c1cc(Cc2n[nH]c(=O)c3ccccc23)ccc1F)N1CC2(COC2)C1` [Compound 10b, 4-(4-Fluoro-3-(2-oxa-6-azaspiro[3.3]heptane-6-carbonyl)benzyl)phthalazin-1(2H)-one], for which the EC50 in assay [2] was 53.3 µM; in assay [3] it was 0.0249 µM; in assay [4] (Mus musculus) it was 52.2 µM. The same compound had an IC50 in assay [3] of 0.0249 µM.

Regarding `O=C(c1cc(Cc2n[nH]c(=O)c3ccccc23)ccc1F)N1CC[C@@H](OCCF)C1` [Compound 28, (R)-4-(4-fluoro-3-(3-(2-fluoroethoxy)pyrrolidine-1-carbonyl)benzyl)phthalazin-1(2H)-one], the EC50 worked out at 30.9 ± 1.2 µM in assay [5] and 0.0101 ± 0.0011 µM in assay [3].

Consider `O=C(c1cc(Cc2n[nH]c(=O)c3ccccc23)ccc1F)N1CC(OCCF)C1` [Compound 26, 4-(4-fluoro-3-(3-(2-fluoroethoxy)azetidine-1-carbonyl)benzyl)phthalazin-1(2H)-one], for which the EC50 amounted to 74.1 ± 1.3 µM in assay [5] and 0.00754 ± 0.0011 µM in assay [3].

Regarding `COC1CCCN(C(=O)c2cc(Cc3n[nH]c(=O)c4ccccc34)ccc2F)CC1` (stereo not drawn) [Compound 25], the results for the EC50 in assay [5] and in assay [3] were 20.2 ± 1.3 µM and 0.00474 ± 0.0011 µM, respectively.

For the compound `O=C(c1cc(Cc2n[nH]c(=O)c3ccccc23)ccc1F)N1CCC2(CCC2)C1` [Compound 14a, 4-(4-Fluoro-3-(6-azaspiro[3.4]octane-6-carbonyl)benzyl)phthalazin-1(2H)-one], the results for the EC50 in assay [2], in assay [3] and in assay [4] (Mus musculus) were 54.7 µM, 0.0324 ± 0.0011 µM and 45.2 µM, respectively.

(Values after patent US11542282B2, “Low affinity poly(AD-ribose) polymerase 1 dependent cytotoxic agents” (THE TRUSTEES OF THE UNIVERSITY OF PENNSYLVANIA, priority 2018, dated 2023).)
